Test results from patent publication US8053415B2, “Compounds having RD targeting motifs” (Washington University in St. Louis, priority 2005, dated 2011).
pIC50: −log10 of the molar value. Entries after “also recorded” stand apart in the source; their conditions may differ. Read-outs that look alike come from different tables or passages of the source. Where a SMILES comes first, the peptide text is derived from it. Where no end group is shown, it is not given here. [ ]: non-standard residue; d: D form. The star is where a group is joined. Cypate = CC1(C)C(/C=C/C=C/C=C/C=C2/N(CCC(=O)*)c3ccc4ccccc4c3C2(C)C)=[N+](CCC(=O)O)c2ccc3ccccc3c21

Columns and labels:
[1] = biological target: T1, purified human αvβ3 integrin protein (Homo sapiens, UniProt P05106+P06756); experiment: Competitive αvβ3 integrin receptor binding assay with 125I-echistatin tracer (Example 2)
T1 construct: purchased Chemicon International, Inc. (Temecula, Calif.)
Protocol: The binding affinities were measured based on the competitive binding between purified αvβ3 integrin (ABI) and peptide ligands. Echistatin is a polypeptide that binds irreversibly with high affinity and specificity to ABI. ^125I-echistatin was used as a tracer in ABI binding assays.
Receptor binding assays were performed by using purified human αvβ3 integrin protein from Chemicon International, Inc. (Temecula, Calif.). Assays were carried out using the Millipore Duropore membrane 96-well plates and the Millipore MultiScreen system (Bedford, Mass.). The 96-well membrane plate was blocked with 0.1% Polythylenimine blocking solution overnight at 4° C. ^125I-echistatin (50 nmol/L) was added to the binding buffer (50 mM Tris-HCl, pH 7.4, 100 mM NaCl, 2 mM CaCl2, 1 mM MgCl2, 1 mM MnCl2, 1% BSA) containing integrin protein (50 ng per well in 96-well membrane plate) and ligands in a total volume of 200 μL per well. The concentration range of ligand was between 0.01 μM and 100 μM. The mixtures were incubated for 2 h at room temperature, the ABI was then filtered by centrifugation at 1500 g and washed three times with 0.20 mL of ice-cold binding buffer. The filters containing radioactivity bound ABI were removed using a punch apparatus and counted using a Packard Cobra II Auto-gamma counter (Meriden, Conn.). […] Radiolabeling of ^125I-echistatin (Amersham Biosciences, Piscataway, N.J.) was carried out in a mixture of 0.25% BSA, 5.0% lactose, 0.21% citric acid and aprotinin (0.9 TIU/ml).

[2] = system: A549 cells; experiment: CyQuant cytotoxicity and proliferation assay; assay type: cell-based, human; conditions: 48 hours
Protocol: Cells were seeded at 2.5×10^4 cells/well and grown in 96 well plates in the presence of 0−1.5×10^−5 M cypate conjugated peptides for 24 or 48 hours. Cell proliferation was measured using the CyQuant proliferation assay from Molecular Probes (Eugene, Oreg.) per the manufacturer's protocol. Briefly, after incubation the microplate was inverted to remove the media and frozen at −70° C. overnight. The microplate was thawed at room temperature and 200 μL of the CyQuant GR dye/cell-lysis buffer was added to each well. […]
Because the Cyquant assay is based on the adherence of a dye to nucleic acids, the assay is a measure of both proliferative and cytotoxic effects.

[3] = system: A549 tumor; experiment: In vivo fluorescence optical imaging and ex vivo organ distribution in A549 tumor-bearing nude mice; conditions: for uptake / retention in A549 tumor: 0.3 μmol per kg via lateral tail vein, fluorescence imaging
Protocol: All in vivo studies were performed in compliance with the Washington University in St Louis Animal Study Committee's requirements for the care and use of laboratory animals in research. Nude mice (18-22 g) were anesthetized with xylazine/ketamine cocktail via intraperitoneal injection and placed in a supine position. The mice were injected subcutaneously with A549 cells (1×10^6) in the lower back of the mice. Tumor masses were palpable at 5-7 days post implant, which reached 5 mm in 10-15 days. Prior to injection of the probe, the mice were anesthetized as described above. A 29-gauge needle was used to inject the probes into the mouse via the lateral tail vein. The molecular probe (100 μL) was injected via the lateral tail vein at 0.3 μmol per kg of body weight. […] [SEQ ID NO:1] were constituted in a vial, and doses of 0.3 μmol per kg of body weight were injected into the A549 tumor-bearing mice.
A non-invasive in vivo continuous wave fluorescence imaging apparatus was used to visualize the distribution and preferential tissue uptake of the cypate-peptide molecular beacons in the nude mice (Achilefu (2004) Technol. Cancer Res. Treat. 3:393-409, incorporated herein by reference). Light from two laser diodes of nominal wavelength 780 nm and nominal power of 50 mW was launched into a fiber optic bundle. Two laser diodes were used to produce as much uniform illumination of the whole animal or organ parts as possible. The nominal 50 mW of incident power was reduced to about 44 mW at the output of the fiber optic bundle. A de-focusing lens in position after the bundle expanded the beam such that nearly the whole animal was illuminated. A Photometrics CCD camera (16 bit, 1024×1024 pixel, back illuminated, thermoelectric Peltier cooled with forced air) was used to capture the emitted photons. An interference filter (830 nm) was mounted in front of the CCD camera input lens such that only emitted fluorescent light from the contrast agent was imaged. Real-time acquisition, display and data processing software (WinView/32) was used to obtain the optical image. The samples were dissolved in 20% aqueous DMSO and animals were injected with doses of 0.3 μmol/kg body weight via the lateral tail vein. Injected volumes were 100 μL for each mouse. Data analysis consisted of subtracting (pixel by pixel) the pre-injection image from the post injection images, and displaying the false color results. Integration of the relative fluorescence intensities of tumor vs. surrounding tissues indicated the extent of selective uptake of the contrast agent. At the completion of the study, the mice were euthanized and some organ parts were excised and rinsed with water. The tissues were placed under the CCD camera and the fluorescence emission from each organ was measured after excitation with the 780 nm laser sources. Tissue parts, instead of whole organs, were used to minimize problems associated with depth-dependent non-linear fluorescence emission. A statistical program in the WinView package was used to estimate the mean fluorescence intensity per organ part.
In vivo optical imaging studies using the cypate-peptide optical probes were performed and analyzed as described above in Example 1. […]

[4] = system: A549 cells; experiment: Cellular internalization and blocking studies by fluorescence microscopy (Example 1); conditions: for internalization in A549 cells: 1 μM
[5] = Absorption and emission spectral properties in 20% aqueous DMSO; assay type: physicochemical
Protocol: The spectral properties of cypate and the cypate-peptide conjugates were determined in 20% aqueous DMSO, which solubilizes all the compounds. […] Absorbance measurements were performed with a Beckman Coulter DU 640 spectrophotometer. The fluorescence spectra were recorded on Fluorolog-3 fluorometer (HORIBA Jobin Yvon Inc., Edison, N.J.). To prepare the stock solutions, a high precision analytical balance was used to weigh >2 mg of each compound, which was dissolved in DMSO. The DMSO solutions were then diluted with water to obtain a final solution of 20% aqueous DMSO. An aliquot (known volume) of the solution was transferred to a cuvette with 1 μL precision micropipettes and diluted with 20% aqueous DMSO solvent mixture to give a working solution that absorbs at <1.0 absorbance unit. Aliquots of the working solution were diluted with 20% aqueous DMSO and used to determine the molar absorptivity of each compound. For fluorescence measurements, probe solutions with 0.1 absorbance units were used to minimize inner filter effects.
Previous studies have shown that this solvent mixture boosts fluorescence intensity and is well tolerated by rodents. Additionally, the dyes and their peptide conjugates are soluble in this solvent mixture, providing a common medium for spectral measurements.
Absorbance spectra were measured on a Beckman Coulter DU 640 UV-Visible spectrophotometer. Fluorescence spectra were recorded on a HORIBA Jobin Yvon Fluorolog-3 fluorometer. Stock solutions (1.0 mM) of the conjugates were prepared by dissolving each sample in 80% aqueous DMSO. UV-Vis and fluorescence measurements were carried out by adding 5.0 μL of the stock solutions via a micropipette into 3 mL of 20% aqueous DMSO in a quartz cuvette.

[6] = system: A549 tumor; set-up: species or system mice; conditions: mouse, in vivo
Description: The hypothesis that the “RD” motif was solely responsible for the tumor uptake was further tested by injecting ^111In-DOTA-GRD [SEQ ID NO:15] (120 μCi; 1 Ci=37 GBq) into A549 tumor-bearing mice.

[7] = Table 2, read-out: IC50 (αvβ3 integrin binding affinities)

## CC(C)[C@@H]1NC(=O)[C@@H](Cc2ccccc2)NC(=O)[C@H](CC(=O)O)NC(=O)CNC(=O)[C@H](CCCNC(=N)N)NC(=O)[C@H](CCCCN)NC1=O [Cyclo(DPhe-Val-Lys-Arg-Gly-Asp)-OH] (HELM PEPTIDE1{R.G.D.[dF].V.K}$PEPTIDE1,PEPTIDE1,1:R1-6:R2$$$V2.0)
[1]; Table 3, read-out: IC50
  pIC50: 5.72

## CC(C)[C@@H]1NC(=O)[C@@H](Cc2ccccc2)NC(=O)[C@H](CC(=O)O)NC(=O)CNC(=O)[C@H](CCCNC(=N)N)NC(=O)[C@H](CCCCNC(=O)CCN2/C(=C/C=C/C=C/C=C/C3=[N+](CCC(=O)O)c4ccc5ccccc5c4C3(C)C)C(C)(C)c3c2ccc2ccccc32)NC1=O [Cyp-cyclo-RGD, Cypate-cyclo[RGDfVK^(Cypate)]] (cyclo(RGD[dF]VK(Cypate)))
[1]; [7]
  pIC50: 4.10
[2]
  cytotoxicity (CyQuant), longer treatment: some cytotoxicity
[3]
  uptake / retention in A549 tumor: preferentially localized
[3]; 24 h post injection
  accumulation / retention in nontarget tissues: equally high
  retention in the tumor, cyclic versus linear Cyp-RGD: higher by a factor of three

## CC1(C)C(/C=C/C=C/C=C/C=C2/N(CCC(=O)O)c3ccc4ccccc4c3C2(C)C)=[N+](CCC(=O)[O-])c2ccc3ccccc3c21 [Cypate, cypate, reference compound]
[4]; 37° C.
  internalization in A549 cells: did not internalize
[5]
  ^abεmax: 244,400 cm^−1Mol^−1
  ^abλmax: 786 nm
  ^emλmax: 811 nm
[3]
  uptake / retention in A549 tumor: not retained in the tumor; also recorded: None of the three non-ABI-specific probes were retained in the A549 tumor tissue
[3]; after injection
  time of clearance from blood by the liver: ≤ 4 h

## CC1(C)C(=CC=CC=CC=CC2=[N+](CCC(=O)O)c3ccc4ccccc4c3C2(C)C)N(CCC(=O)N[C@H]2CSSC[C@@H](C(N)=O)NC(=O)[C@H](CC(=O)O)NC(=O)CNC(=O)[C@H](CCCNC(=N)N)NC2=O)c2ccc3ccccc3c21 [Cypate-cyclo(CRGDC)-NH2] (HELM PEPTIDE1{[CC1(C)C(/C=C/C=C/C=C/C=C2/N(CCC(=O)[*:2])c3ccc4ccccc4c3C2(C)C)=[N+](CCC(=O)O)c2ccc3ccccc3c21].C.R.G.D.C.[am]}$PEPTIDE1,PEPTIDE1,2:R3-6:R3$$$V2.0)
[1]; [7]
  pIC50: 5.34

## CC(C)[C@H](NC(=O)[C@@H](NC(=O)[C@@H]1CSSC[C@H](NC(=O)[C@H](N)Cc2ccccc2)C(=O)N[C@@H](Cc2ccc(O)cc2)C(=O)N[C@H](Cc2c[nH]c3ccccc23)C(=O)N[C@@H](CCCCN)C(=O)N[C@@H]([C@@H](C)O)C(=O)N1)[C@@H](C)O)C(=O)N[C@@H](CCCNC(=N)N)C(=O)NCC(=O)N[C@@H](CC(=O)O)C(N)=O [H-DPhe-Cyclo(Cys-Tyr-DTrp-Lys-Thr-Cys)-Thr-Val-Arg-Gly-Asp-NH2] (HELM PEPTIDE1{[dF].C.Y.[dW].K.T.C.T.V.R.G.D.[am]}$PEPTIDE1,PEPTIDE1,2:R3-7:R3$$$V2.0)
[1]; Table 3, read-out: IC50
  pIC50: 6.14

## N=C(N)NCCC[C@H](NC(=O)CNC(=O)CN1CCN(CC(=O)O)CCN(CC(=O)O)CCN(CC(=O)O)CC1)C(=O)N[C@@H](CC(=O)O)C(=O)N[C@@H](CO)C(=O)N1CCC[C@H]1C(=O)N[C@@H](CCCCN)C(=O)O [^111In-DOTA-GRD, metal not drawn] (HELM PEPTIDE1{[O=C(O)CN1CCN(CC(=O)O)CCN(CC(=O)[*:2])CCN(CC(=O)O)CC1].G.R.D.S.P.K}$$$$V2.0)
[6]
  clearance (scintigraphy): rapid renal clearance
  localization of the material: nearly all of the material localized in the bladder

## CC1(C)C(/C=C/C=C/C=C/C=C2\N(CCCCS(=O)(=O)O)c3ccc4ccccc4c3C2(C)C)=[N+](CCCCS(=O)(=O)[O-])c2ccc3ccccc3c21 [indocyanine green, reference compound]
[3]
  uptake / retention in A549 tumor: None of the three non-ABI-specific probes were retained in the A549 tumor tissue

## Cypate-3-GRDSPK ({Cypate‑3}-GRDSPK; listed as Homo sapiens) [Cyp-3-GRD]
[4]; 37° C.
  internalization in A549 cells: internalized
[4]; A549 cells incubated at 4° C.
  cellular localization at 4° C.: remained in the peripheral region of the cell membrane
[4]; A549 cells, 37° C.
  translocation into the nucleus: did not translocate into the nucleus
[5]
  ^abεmax: 128,538 cm^−1Mol^−1
  ^abλmax: 684 nm
  ^emλmax: 703 nm

## GRDSPK (listed as Homo sapiens) [GRD peptide]
[3]; equimolar, 0.3 μmol/kg body weight, 24 h post injection
  blocking of Cyp-GRD uptake in the tumor by co-injection: unable to block

## cytate [reference compound]
[3]
  uptake / retention in A549 tumor: None of the three non-ABI-specific probes were retained in the A549 tumor tissue
